The values below are quoted from earlier work in patent publication US20260345597A1, “LONG-ACTING AND SUSTAINED-RELEASE PREPARATION COMPOSITION OF LUMATEPERONE AND PREPARATION METHOD THEREOF” (SICHUAN KELUN PHARMACEUTICAL RESEARCH INSTITUTE CO., LTD., priority 2023, published 2026).

Structures are written as SMILES.

For this series, the system named is patients with schizophrenia. The following applies: background.

With `CN1CCN2c3c(cccc31)[C@@H]1CN(CCCC(=O)c3ccc(F)cc3)CC[C@@H]12` [lumateperone], the “adverse reactions such as weight gain and abnormal lipid metabolism” value is “less likely to cause adverse reactions such as weight gain and abnormal lipid metabolism”. Under “patients with schizophrenia”, the “effect on symptoms of schizophrenia” value was “alleviating positive symptoms while improving negative symptoms, depressive symptoms, and social functioning”; the “safety and tolerability profile” value is “superior safety and tolerability profiles”.
